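Compound exposure: 48 hours, 5 concentrations, 96-well plates. Abbreviation: GI50, concentration required for 50% inhibition of growth.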 Active and inactive are the calls of the source. Cut-off read from the data, not from the text of the source: active = GI50 up to about 1.1 µM and inactive = higher.
Experiments:
Assay in all cases: NCI anticancer screen, dose series, 48 h
A549 = test system: A549
SN12C = test system: SN12C
TK-10 = test system: TK-10
HCT-15 = test system: HCT-15
ACHN = test system: ACHN
MOLT-4 = test system: MOLT-4
OVCAR-8 = test system: OVCAR-8
Malme-3M = test system: Malme-3M
NCI-H226 = test system: NCI-H226
U-251 = test system: U-251
SNB-75 = test system: SNB-75
SF-268 = test system: SF-268
SW-620 = test system: SW-620
M14 = test system: M14
OVCAR-5 = test system: OVCAR-5
K562 = test system: K562
NCI-H522 = test system: NCI-H522
UACC-257 = test system: UACC-257
OVCAR-3 = test system: OVCAR-3
MDA-MB-435 = test system: MDA-MB-435

Row | SMILES | GI50 (A549) | GI50 (SN12C) | GI50 (TK-10) | GI50 (HCT-15) | GI50 (ACHN) | GI50 (MOLT-4) | GI50 (OVCAR-8) | GI50 (Malme-3M) | GI50 (NCI-H226) | GI50 (U-251) | GI50 (SNB-75) | GI50 (SF-268) | GI50 (SW-620) | GI50 (M14) | GI50 (OVCAR-5) | GI50 (K562) | GI50 (NCI-H522) | GI50 (UACC-257) | GI50 (OVCAR-3) | GI50 (MDA-MB-435)
1 | COC1CC(OC2C(C)OC(OC3C(C)OC(OC4C(O)CC(O[C@H]5CC[C@@]6(C)C(=CC[C@]7(O)[C@@H]6C[C@@H](OC(C)=O)[C@@]6(C)[C@]7(O)CC[C@@]6(O)C(C)=O)C5)OC4C)CC3OC)CC2OC)OC(C)C1O (stereo not given in full) | > 12.5 µM (inactive) | > 12.5 µM (inactive) | > 12.5 µM (inactive) | > 12.5 µM | > 12.5 µM (inactive) | > 12.5 µM (inactive) | > 12.5 µM (inactive) | 8.26 µM (inactive) | > 12.5 µM (inactive) | > 12.5 µM (inactive) | > 12.5 µM (inactive) | > 12.5 µM (inactive) | > 12.5 µM (inactive) | > 12.5 µM (inactive) | > 12.5 µM (inactive) | > 12.5 µM (inactive) | > 12.5 µM (inactive) | > 12.5 µM (inactive) | > 12.5 µM (inactive) | > 12.5 µM (inactive)
2 | CC1=NCCN=C(C)C1/N=N/c1ccc2[nH]c(C)nc2c1 | 6.19 µM (inactive) | 11.7 µM (inactive) | 19.7 µM (inactive) | 8.77 µM | 15.6 µM (inactive) | 6.38 µM (inactive) | 12.2 µM (inactive) | 16 µM (inactive) | 20.3 µM (inactive) | 17.5 µM (inactive) | 13.2 µM (inactive) | 21.2 µM (inactive) | 14.9 µM (inactive) | 3.57 µM (inactive) | 17.6 µM (inactive) | 4.83 µM (inactive) | 17.4 µM (inactive) | 11.3 µM (inactive) | 19.5 µM (inactive) | 8.53 µM (inactive)
3 | CC1OC(OC2C(O)COC(OC3C(C)OC(OC4C(OC(=O)[C@]56CCC(C)(C)C[C@@H]5C5=CCC7[C@@]8(C)C[C@H](O)[C@H](OC9OC(CO)C(O)C(O)C9O)[C@@](C)(CO)[C@@H]8CC[C@@]7(C)[C@]5(C)CC6)OCC(O)C4O)C(O)C3OC3OCC(O)(CO)C3O)C2O)C(O)C(O)C1O (stereo not given in full) | 4.62 µM (inactive) | 4.3 µM (inactive) | 14.5 µM (inactive) | 16.1 µM | 12.5 µM (inactive) | 15.7 µM (inactive) | 18.5 µM (inactive) | 12 µM (inactive) | 16.9 µM (inactive) | 16.3 µM (inactive) | 21 µM (inactive) | 10.2 µM (inactive) | 11.3 µM (inactive) | 3.33 µM (inactive) | 8.93 µM (inactive) | 28.5 µM (inactive) | 16.1 µM (inactive) | 9.77 µM (inactive) | 18.9 µM (inactive) | 17.4 µM (inactive)
4 | CCOC(=O)CCC(NC(=O)c1ccc(NCc2ccc3nc(OC)c(OC)nc3c2)c2ccccc12)C(=O)OCC (stereo not given) | > 100 µM (inactive) | > 100 µM (inactive) | 66.2 µM (inactive) | > 100 µM | 55.8 µM (inactive) | > 100 µM (inactive) | 57.5 µM (inactive) | > 100 µM (inactive) | > 100 µM (inactive) | 40.5 µM (inactive) | 38.8 µM (inactive) | 42.7 µM (inactive) | > 100 µM (inactive) | > 100 µM (inactive) | > 100 µM (inactive) | > 100 µM (inactive) | > 100 µM (inactive) | > 100 µM (inactive) | 94.2 µM (inactive) | > 100 µM (inactive)
5 | O=C1C(Br)=CC2(C=C1Br)CCNC1=C2C2=NCCc3c[nH]c(c32)C1=O | 0.951 µM (active) | 0.146 µM (active) | 0.204 µM (active) | 0.0605 µM | 0.0962 µM (active) | 0.0315 µM (active) | 0.0736 µM (active) | 0.0415 µM (active) | 1.27 µM (inactive) | 0.398 µM (active) | 0.973 µM (active) | 0.347 µM (active) | 0.0255 µM (active) | 0.0703 µM (active) | 0.69 µM (active) | 0.028 µM (active) | 0.0176 µM (active) | 0.101 µM (active) | 0.0249 µM (active) | 0.102 µM (active)
6 | COc1ccc2nc3c(c(N)c2c1)C1CCC3C1(C)C (stereo not given) | 70.5 µM (inactive) | 52.1 µM (inactive) | 32.7 µM (inactive) | 51.1 µM | > 100 µM (inactive) | 46.9 µM (inactive) | 71.1 µM (inactive) | 24.3 µM (inactive) | 25.3 µM (inactive) | 38.5 µM (inactive) | 29.6 µM (inactive) | 72.1 µM (inactive) | 25.5 µM (inactive) | 17.8 µM (inactive) | 41 µM (inactive) | 41.7 µM (inactive) | 34.7 µM (inactive) | 18.9 µM (inactive) | 31.9 µM (inactive) | 33 µM (inactive)
7 | CNc1ncnc(Sc2nc(N)nc3[nH]cnc23)c1[N+](=O)[O-] | 3.08 µM (inactive) | 0.933 µM (active) | 0.251 µM (active) | 1.54 µM | 2.84 µM (inactive) | 0.409 µM (active) | 0.622 µM (active) | 1.46 µM (inactive) | 5.7 µM (inactive) | 4.42 µM (inactive) | 0.406 µM (active) | 0.566 µM (active) | 0.94 µM (active) | 0.448 µM (active) | 2.25 µM (inactive) | 0.33 µM (active) | 0.635 µM (active) | 1.54 µM (inactive) | 0.75 µM (active) | 0.48 µM (active)

From ChEMBL document CHEMBL1201862, “PubChem BioAssay data set” (2004)
